From US6344440B1, “Antisecretory factor peptides regulating pathological permeability changes” (Rural Patent Svenska AB, priority 1995, dated 2002)

Experiments:
[1] = test system: cholera toxin-induced fluid secretion in rat intestine; settings: in vivo
[2] = test system: toxin A from Clostridium difficile-induced inflammation and fluid secretion in the intestinal mucosa; assay: Toxin A-induced intestinal inflammation and fluid secretion, rat intestinal loop model; assay type: in vivo; settings: for toxin A-induced fluid secretion: p<0.01
Protocol: The effect of rAF on inflammation in the intestinal mucosa was also tested in the rat intestinal loop model. […] Half of the rats in each group received 100 ng of rAF intravenously 30 sec prior to the challenge; the other half received PBS buffer as control. After killing the rat, the loops was dissected out, and the middle 2-3 cm part of the loops were frozen on dry ice. The frozen specimens were then sectioned in 8 μm thick sections by use of a Leica cryostat. […] Alkaline phosphatases are expressed by the intestinal epithelial cells and the staining allows an assessment and of the integrity of the intestinal epithelium.

[3] = test system: CT-induced extravascular penetration of Evans blue in the small intestine; settings: rat, in vivo, iv
[4] = test system: CT-induced extravascular penetration of Evans blue in the plexus choroideus; settings: rat, in vivo, iv
[5] = Toxicity of rAF in rats; assay type: in vivo, rat
Protocol: Toxicity—In order to test the toxicity of rAF it was injected in a high dose, 50 μg per rat.

[6] = test system: cholera toxin-induced Evans blue permeation of intestinal tissue; settings: rat, in vivo

## VCHSKT (Human) [P2]
[1]
  effect on the toxin response: no effect

## P3: peptide of amino acids 35-46 of SEQ ID NO:2, solid phase synthesis (IVCHSKTRSNPE; Human)
[1]
  ED50 (amount causing halfmaximal inhibition): 7 pmol
  activity (inhibition of cholera secretion): active

## IVCHSKTR (Human) [P1]
[2]; 0.5 μg replacing the rAF protein
  effect on toxin A-induced intestinal inflammation and fluid secretion: achieved the same effect
[2]; 0.5 μl of P1 prior to toxin challenge
  state of intestinal mucosa (alkaline phosphatase staining, FIG. 9): a conserved and normal intestinal mucosa
[1]
  ED50 (amount causing halfmaximal inhibition): 5 pmol
  active dose: less than 1 ng
  activity (inhibition of cholera secretion): active
[3]
  CT-induced extravascular penetration of Evans blue, small intestine: inhibits the CT-induced extravascular penetration of Evans blue
[4]
  CT-induced extravascular penetration of Evans blue, plexus choroideus: inhibits the CT-induced extravascular penetration of Evans blue

## N3: recombinant peptide, amino acids 36-51 of SEQ ID NO:2, expressed from basepairs 168-215 (VCHSKTRSNPENNVGL; Human)
[1]
  ED50 (amount causing halfmaximal inhibition): 3 pmol

## N2: recombinant peptide, amino acids 36-80 of SEQ ID NO:2, expressed from basepairs 168-301 (VCHSKTRSNPENNVGLITLANDCEVLTTLTPDTGRILSKLHTVQP; Human)
[1]
  ED50 (amount causing halfmaximal inhibition): 6 pmol

B1: rAF: recombinant human antisecretory factor, SEQ ID No. 2, thrombin-cleaved pure AF-1 protein expressed in E. coli (protein)
chain: MVLESTMVCVDNSEYMRNGDFLPTRLQAQQDAVNIVCHSKTRSNPENNVGLITLANDCEVLTTLTPDTGRILSKLHTVQPKGKITFCTGIRVAHLALKHRQGKNHKMRIIAFVGSPVEDNEKDLVKLAKRLKKEKVNVDIINFGEEEVNTEKLTAFVNTLNGKDGTGSHLVTVPPGPSLADALISSPILAGEGGAMLGLGASDFEFGVDPSADPELALALRVSMEEQRHAGGGARRAARASAAEAGIATTGTEDSDDALLKMTISQQEFGRTGLPDLSSMTEEEQIAYAMQMSLQGAEFGQAESADIDASSAMDTSEPAKEEDDYDVMQDPEFLQSVLENLPGVDPNNEAIRNAMGSLPPRPPRTARRTRRRKTRSETGGKG
modifications: Human
[2]; 100 ng i.v. 30 sec prior to 0.5 μg toxin A, 2.5 and 5 h
  damage of the intestinal mucosa (shedding, necrosis, bleeding): no shedding, necrosis or bleeding
[2]; 100 ng i.v. 30 sec prior to 0.5 μg toxin A, after 2.5 h, control 199±4
  toxin A-induced fluid secretion: 137 ± 5 mg/cm
[2]; 100 ng i.v. 30 sec prior to 0.5 μg toxin A, after 6 h, control 421±3
  toxin A-induced fluid secretion: 203 ± 6 mg/cm
[1]
  inhibition of intestinal secretion compared to control animals: significant inhibition
  reduction of the fluid secretion compared to controls: significant reduction
[5]; 50 μg per rat, observation period of one week
  toxic reaction: No obvious toxic reaction
[5]; rats given 100 fold higher doses than that causing half-maximal inhibition
  toxic reactions: no obvious toxic reactions
[6]
  % increase of EB-konc: 0 NS %
  CT-induced increase of EB extracted from the intestinal tissue: prevent this increase
  EB/g int. tissue × 10^−07: 29.6 ± 1.5 EB/g int. tissue × 10^−07

B2: N1: recombinant peptide, amino acids 1-80 of SEQ ID NO:2, expressed from basepairs 63-301 (protein)
chain: MVLESTMVCVDNSEYMRNGDFLPTRLQAQQDAVNIVCHSKTRSNPENNVGLITLANDCEVLTTLTPDTGRILSKLHTVQP
modifications: Human
[1]
  ED50 (amount causing halfmaximal inhibition): 4 pmol
